{
  "source": "the Deep4Chem optical property database",
  "experiment": "solvent given as SMILES",
  "data": [
    {"molecule": "Cc1ccc(-c2cc(-c3ccccc3)c(C#N)c(=S)[nH]2)cc1", "values": [
      {"measurement": "emission maximum", "setting": "in C1CCCCC1", "result": 504, "unit": "nm"},
      {"measurement": "emission maximum", "setting": "in C1COCCO1", "result": 506, "unit": "nm"},
      {"measurement": "emission maximum", "setting": "in CC#N", "result": 488, "unit": "nm"},
      {"measurement": "emission maximum", "setting": "in CCCCO", "result": 503, "unit": "nm"},
      {"measurement": "emission maximum", "setting": "in CCCO", "result": 490, "unit": "nm"},
      {"measurement": "emission maximum", "setting": "in CCO", "result": 462, "unit": "nm"},
      {"measurement": "emission maximum", "setting": "in CCOC(C)=O", "result": 522, "unit": "nm"},
      {"measurement": "emission maximum", "setting": "in CCOCC", "result": 524, "unit": "nm"},
      {"measurement": "emission maximum", "setting": "in CN(C)C=O", "result": 502, "unit": "nm"},
      {"measurement": "emission maximum", "setting": "in ClC(Cl)(Cl)Cl", "result": 508, "unit": "nm"}
    ]},
    {"molecule": "CCCCCCCN1C(=CC2=C([O-])C(=Cc3sc4ccccc4[n+]3CCCCCCC)C2=C(C#N)C#N)Sc2ccccc21", "values": [
      {"measurement": "emission maximum", "setting": "in C1COCCO1", "result": 723, "unit": "nm"},
      {"measurement": "emission maximum", "setting": "in CCO", "result": 711, "unit": "nm"},
      {"measurement": "emission maximum", "setting": "in CN(C)C=O", "result": 717, "unit": "nm"},
      {"measurement": "emission maximum", "setting": "in ClC(Cl)Cl", "result": 724, "unit": "nm"}
    ]},
    {"molecule": "O=Cc1ccc(-c2ccc(-c3nc4ccccc4s3)c(O)c2)o1", "values": [
      {"measurement": "emission maximum", "setting": "in CCO", "result": 530, "unit": "nm"},
      {"measurement": "emission maximum", "setting": "in ClCCl", "result": 526, "unit": "nm"},
      {"measurement": "emission maximum", "setting": "in O", "result": 563, "unit": "nm"}
    ]},
    {"molecule": "CCOC(=O)c1c2c3c(ccc(F)c3c3cc4ccccc4cc13)N(C)C2=O", "values": [
      {"measurement": "emission maximum", "setting": "in CC#N", "result": 415, "unit": "nm"}
    ]},
    {"molecule": "CN(C)c1ccc(/C=C/c2ncnc3ccccc23)cc1", "values": [
      {"measurement": "emission maximum", "setting": "in C1CCCCC1", "result": 465, "unit": "nm"},
      {"measurement": "emission maximum", "setting": "in C1CCOC1", "result": 537, "unit": "nm"},
      {"measurement": "emission maximum", "setting": "in CC#N", "result": 572, "unit": "nm"},
      {"measurement": "emission maximum", "setting": "in CS(C)=O", "result": 585, "unit": "nm"},
      {"measurement": "emission maximum", "setting": "in ClCCl", "result": 548, "unit": "nm"}
    ]},
    {"molecule": "N#Cc1c(N2CCCCC2)cc(-c2ccc3ccccc3c2)c2c1-c1ccccc1C2=O", "values": [
      {"measurement": "emission maximum", "setting": "in C1CCOC1", "result": 527, "unit": "nm"}
    ]},
    {"molecule": "CN(C)c1ccc(/C=C/c2cnc3ccccc3n2)cc1", "values": [
      {"measurement": "emission maximum", "setting": "in C1CCOC1", "result": 556, "unit": "nm"},
      {"measurement": "emission maximum", "setting": "in CC#N", "result": 611, "unit": "nm"},
      {"measurement": "emission maximum", "setting": "in CCCCCCC", "result": 468, "unit": "nm"},
      {"measurement": "emission maximum", "setting": "in CS(C)=O", "result": 622, "unit": "nm"},
      {"measurement": "emission maximum", "setting": "in ClCCl", "result": 570, "unit": "nm"}
    ]},
    {"molecule": "CN(C)c1ccc(-c2cc(-c3ccccc3)nn2C)cc1", "values": [
      {"measurement": "emission maximum", "setting": "in ClCCl", "result": 365, "unit": "nm"}
    ]},
    {"molecule": "CC1(C)c2ccccc2N(c2ccccc2)c2ccc(-c3ccc(S(=O)(=O)c4ccc(-c5ccc6c(c5)C(C)(C)c5ccccc5N6c5ccccc5)cc4)cc3)cc21", "values": [
      {"measurement": "emission maximum", "setting": "in Cc1ccccc1", "result": 419.03, "unit": "nm"},
      {"measurement": "emission maximum", "setting": "in O=P(c1ccccc1)(c1ccccc1)c1ccccc1Oc1ccccc1P(=O)(c1ccccc1)c1ccccc1", "result": 439, "unit": "nm"}
    ]},
    {"molecule": "COc1ccc(-c2csc(/C(C#N)=C/c3ccc(C#N)cc3)n2)cc1", "values": [
      {"measurement": "emission maximum", "setting": "in CC#N", "result": 561, "unit": "nm"},
      {"measurement": "emission maximum", "setting": "in CCO", "result": 555, "unit": "nm"},
      {"measurement": "emission maximum", "setting": "in CN(C)C=O", "result": 570, "unit": "nm"},
      {"measurement": "emission maximum", "setting": "in Cc1ccccc1", "result": 519, "unit": "nm"},
      {"measurement": "emission maximum", "setting": "in ClCCl", "result": 554, "unit": "nm"}
    ]},
    {"molecule": "CN(C)CCN(Cc1c2ccccc2cc2ccccc12)c1ccc([N+](=O)[O-])cc1[N+](=O)[O-]", "values": [
      {"measurement": "emission maximum", "setting": "in C1CCCCC1", "result": 391, "unit": "nm"},
      {"measurement": "emission maximum", "setting": "in C1CCOC1", "result": 394, "unit": "nm"},
      {"measurement": "emission maximum", "setting": "in CC#N", "result": 394, "unit": "nm"},
      {"measurement": "emission maximum", "setting": "in CC(C)=O", "result": 393, "unit": "nm"},
      {"measurement": "emission maximum", "setting": "in CCO", "result": 394, "unit": "nm"},
      {"measurement": "emission maximum", "setting": "in CN(C)C=O", "result": 396, "unit": "nm"},
      {"measurement": "emission maximum", "setting": "in CO", "result": 392, "unit": "nm"},
      {"measurement": "emission maximum", "setting": "in CS(C)=O", "result": 398, "unit": "nm"},
      {"measurement": "emission maximum", "setting": "in ClC(Cl)Cl", "result": 394, "unit": "nm"},
      {"measurement": "emission maximum", "setting": "in ClCCl", "result": 393, "unit": "nm"}
    ]},
    {"molecule": "CC1(C)c2ccccc2-c2cc3c(cc21)c1ccccc1n3-c1ccccc1", "values": [
      {"measurement": "emission maximum", "setting": "in ClCCl", "result": 391, "unit": "nm"}
    ]},
    {"molecule": "COc1ccc(-c2cccc3ncc(-c4ccccc4)n23)cc1", "values": [
      {"measurement": "emission maximum", "setting": "in ClCCl", "result": 468, "unit": "nm"}
    ]},
    {"molecule": "CCOC(=O)c1c(-c2cc3ccc(OCC=C(C)C)cc3oc2=O)nn(-c2cccc(Cl)c2)c1C(=O)OCC", "values": [
      {"measurement": "emission maximum", "setting": "in ClCCl", "result": 426, "unit": "nm"}
    ]},
    {"molecule": "COC(=O)/C(C#N)=c1\\s/c(=c2/s/c(=C(/C#N)C(=O)OC)c3cc(-c4ccc(F)cc4)sc23)c2sc(-c3ccc(F)cc3)cc12", "values": [
      {"measurement": "emission maximum", "setting": "in Cc1ccccc1", "result": 640, "unit": "nm"}
    ]},
    {"molecule": "Cc1ccc(-c2ccc(-c3ccc(-c4ccc(C)cc4)cc3/C(=C(/c3ccccc3)c3cc(-c4ccc(C)cc4)ccc3-c3ccc(-c4ccc(C)cc4)cc3)c3ccccc3)cc2)cc1", "values": [
      {"measurement": "emission maximum", "setting": "in C1CCOC1", "result": 498, "unit": "nm"}
    ]},
    {"molecule": "CC1=CC(C)=[N+]2C1=C(C1=C3C(C)=CC(C)=[N+]3[B-](F)(F)n3c(C)cc(C)c31)c1c(C)cc(C)n1[B-]2(F)F", "values": [
      {"measurement": "emission maximum", "setting": "in ClC(Cl)Cl", "result": 588, "unit": "nm"}
    ]},
    {"molecule": "CCCCCCCCC1(CCCCCCCC)c2cc(-c3ccc([Si](C)(C)C)cc3)ccc2-c2ccc(-c3ccc([Si](C)(C)C)cc3)cc21", "values": [
      {"measurement": "emission maximum", "setting": "in ClC(Cl)Cl", "result": 368, "unit": "nm"}
    ]},
    {"molecule": "O=C(O)c1ccccc1Nc1ccccc1", "values": [
      {"measurement": "emission maximum", "setting": "in C1CCCCC1", "result": 430, "unit": "nm"},
      {"measurement": "emission maximum", "setting": "in C1CCOC1", "result": 434, "unit": "nm"},
      {"measurement": "emission maximum", "setting": "in C1COCCO1", "result": 432, "unit": "nm"},
      {"measurement": "emission maximum", "setting": "in CC#N", "result": 398, "unit": "nm"},
      {"measurement": "emission maximum", "setting": "in CCOC(C)=O", "result": 434, "unit": "nm"},
      {"measurement": "emission maximum", "setting": "in CN(C)C=O", "result": 386, "unit": "nm"},
      {"measurement": "emission maximum", "setting": "in CO", "result": 390, "unit": "nm"},
      {"measurement": "emission maximum", "setting": "in ClC(Cl)Cl", "result": 450, "unit": "nm"}
    ]},
    {"molecule": "C[Si](C)(c1ccc(-c2nc3ccccc3n2-c2ccccc2)cc1)c1ccc(-c2nc3ccccc3n2-c2ccccc2)cc1", "values": [
      {"measurement": "emission maximum", "setting": "in ClCCl", "result": 359, "unit": "nm"}
    ]},
    {"molecule": "CC1(C)c2ccccc2N(c2cc3c4ccccc4n4c5ccccc5c(c2)c34)c2ccccc21", "values": [
      {"measurement": "emission maximum", "setting": "in C1CCCCC1", "result": 416.92, "unit": "nm"},
      {"measurement": "emission maximum", "setting": "in C1CCOC1", "result": 470.91, "unit": "nm"},
      {"measurement": "emission maximum", "setting": "in Cc1ccccc1", "result": 439, "unit": "nm"}
    ]},
    {"molecule": "CN(C)c1ccc2c(c1)C(=O)c1ccccc1-2", "values": [
      {"measurement": "emission maximum", "setting": "in C1CCCCC1", "result": 600, "unit": "nm"},
      {"measurement": "emission maximum", "setting": "in c1ccccc1", "result": 644, "unit": "nm"}
    ]},
    {"molecule": "O=c1c2ccccc2nc2ccc(-c3ccc(N(c4ccccc4)c4ccccc4)cc3)cn12", "values": [
      {"measurement": "emission maximum", "setting": "in ClCCl", "result": 521, "unit": "nm"}
    ]},
    {"molecule": "F[B-]1(F)n2c(Nc3cccc4cccnc34)ccc2C(c2ccccc2)=C2C=CC(Cl)=[N+]21", "values": [
      {"measurement": "emission maximum", "setting": "in C1CCCCC1", "result": 580, "unit": "nm"},
      {"measurement": "emission maximum", "setting": "in CC#N", "result": 580, "unit": "nm"},
      {"measurement": "emission maximum", "setting": "in Cc1ccccc1", "result": 586, "unit": "nm"},
      {"measurement": "emission maximum", "setting": "in ClC(Cl)Cl", "result": 583, "unit": "nm"}
    ]},
    {"molecule": "c1ccc(-c2nc(-c3ccccc3)nc(-c3ccc(N4c5ccccc5C5(c6ccccc64)c4ccccc4C4(c6ccccc6Sc6ccccc64)c4ccccc45)cc3)n2)cc1", "values": [
      {"measurement": "emission maximum", "setting": "in Cc1ccccc1", "result": 468.93, "unit": "nm"}
    ]},
    {"molecule": "Cc1cc(O)c(-c2[nH]c(=O)n3c2-c2ccccc2C3=O)cc1Cl", "values": [
      {"measurement": "emission maximum", "setting": "in CC#N", "result": 479, "unit": "nm"},
      {"measurement": "emission maximum", "setting": "in CO", "result": 496, "unit": "nm"},
      {"measurement": "emission maximum", "setting": "in ClCCl", "result": 478, "unit": "nm"}
    ]},
    {"molecule": "CC1=[N+]2C(=C(c3ccccc3)c3ccc(/C=C/c4ccc(C(=C(c5ccccc5)c5ccccc5)c5ccccc5)cc4)n3[B-]2(F)F)C=C1", "values": [
      {"measurement": "emission maximum", "setting": "in C1CCOC1", "result": 610, "unit": "nm"}
    ]}
  ]
}
